Species on record: Rattus norvegicus
Test: DrugMatrix - Regimen: Daily Repeat
Type: toxicity, organism-based, Sprague-Dawley
Design: regimen Daily Repeat, gender Male, age 6-8 weeks
Conditions: in vivo, iv, vehicle 100 % SALINE; for ABSOLUTE BASOPHIL / ABSOLUTE EOSINOPHIL / ABSOLUTE LYMPHOCYTE / ABSOLUTE MONOCYTE / ABSOLUTE SEGMENTED NEUTROPHIL / BASOPHIL / EOSINOPHIL / ERYTHROCYTE COUNT / HEMATOCRIT / LEUKOCYTE COUNT / LYMPHOCYTE / MEAN CORPUSCULAR HEMOGLOBIN / MEAN CORPUSCULAR HEMOGLOBIN CONCENTRATION / MONOCYTE / NEUTROPHIL / NUCLEATED RED BLOOD CELLS / PLATELET COUNT / HEMOGLOBIN: tissue Blood
[1] = 6 mg/kg, 72 h, tissue Plasma, dose level Low, time 3 day
[2] = 6 mg/kg, 120 h, dose level Low, time 5 day
[3] = 6 mg/kg, 120 h, tissue Plasma, dose level Low, time 5 day
[4] = 14 mg/kg, 72 h, dose level High, time 3 day
[5] = 14 mg/kg, 72 h, tissue Plasma, dose level High, time 3 day
[6] = 14 mg/kg, 120 h, dose level High, time 5 day
[7] = 14 mg/kg, 120 h, tissue Plasma, dose level High, time 5 day

Sequence: CARBOPLATIN
- TOTAL PROTEIN [1]: 6.3 G/DL
- URIC ACID [1]: 1.1 mg/dL
- ABSOLUTE BASOPHIL [2]: 0 CELLS/uL
- ABSOLUTE EOSINOPHIL [2]: 0 CELLS/uL
- ABSOLUTE LYMPHOCYTE [2]: 10376.67 CELLS/uL
- ABSOLUTE MONOCYTE [2]: 36 CELLS/uL
- ABSOLUTE SEGMENTED NEUTROPHIL [2]: 287.33 CELLS/uL
- BASOPHIL [2]: 0%
- EOSINOPHIL [2]: 0%
- ERYTHROCYTE COUNT [2]: 5.55 x10E6/uL
- HEMATOCRIT [2]: 34.6%
- LEUKOCYTE COUNT [2]: 10.7 x10E3/uL
- LYMPHOCYTE [2]: 97%
- MEAN CORPUSCULAR HEMOGLOBIN [2]: 24.17 pg
- MEAN CORPUSCULAR HEMOGLOBIN CONCENTRATION [2]: 38.73 G/DL
- MONOCYTE [2]: 0.33%
- NEUTROPHIL [2]: 2.67%
- NUCLEATED RED BLOOD CELLS [2]: 0.33 /100WBC
- PLATELET COUNT [2]: 1189.33 x10E3/uL
- ALANINE AMINOTRANSFERASE [3]: 46 u/L
- ALKALINE PHOSPHATASE [3]: 366 u/L
- ASPARTATE AMINOTRANSFERASE [3]: 90.67 u/L
- CARBON DIOXIDE [3]: 29 mmol/L
- CHOLESTEROL [3]: 74.67 mg/dL
- CREATINE PHOSPHOKINASE [3]: 348 u/L
- CREATININE [3]: 0.38 mg/dL
- GLUCOSE [3]: 158.33 mg/dL
- LACTATE DEHYDROGENASE [3]: 130.67 u/L
- LIPASE [3]: 9 u/L
- PHOSPHORUS [3]: 10.43 mg/dL
- POTASSIUM [3]: 5.45 MEQ/L
- TOTAL BILIRUBIN [3]: 0.17 mg/dL
- TOTAL PROTEIN [3]: 6.07 G/DL
- URIC ACID [3]: 0.87 mg/dL
- ABSOLUTE BASOPHIL [4]: 0 CELLS/uL
- ABSOLUTE EOSINOPHIL [4]: 14 CELLS/uL
- ABSOLUTE LYMPHOCYTE [4]: 7854 CELLS/uL
- ABSOLUTE MONOCYTE [4]: 121.33 CELLS/uL
- ABSOLUTE SEGMENTED NEUTROPHIL [4]: 410.67 CELLS/uL
- BASOPHIL [4]: 0%
- EOSINOPHIL [4]: 0.33%
- ERYTHROCYTE COUNT [4]: 6.2 x10E6/uL
- HEMATOCRIT [4]: 38.03%
- HEMOGLOBIN [4]: 15.03 G/DL
- LEUKOCYTE COUNT [4]: 8.4 x10E3/uL
- LYMPHOCYTE [4]: 94%
- MEAN CORPUSCULAR HEMOGLOBIN [4]: 24.43 pg
- MEAN CORPUSCULAR HEMOGLOBIN CONCENTRATION [4]: 39.67 G/DL
- NEUTROPHIL [4]: 4%
- NUCLEATED RED BLOOD CELLS [4]: 1 /100WBC
- PLATELET COUNT [4]: 574 x10E3/uL
- ALANINE AMINOTRANSFERASE [5]: 46.67 u/L
- ALBUMIN [5]: 4.5 G/DL
- ALKALINE PHOSPHATASE [5]: 398.67 u/L
- ASPARTATE AMINOTRANSFERASE [5]: 94.33 u/L
- BLOOD UREA NITROGEN [5]: 15.67 mg/dL
- CARBON DIOXIDE [5]: 29.33 mmol/L
- CHLORIDE [5]: 97 MEQ/L
- CHOLESTEROL [5]: 78.33 mg/dL
- CREATINE PHOSPHOKINASE [5]: 381 u/L
- CREATININE [5]: 0.22 mg/dL
- GLUCOSE [5]: 145.33 mg/dL
- LACTATE DEHYDROGENASE [5]: 168.33 u/L
- LIPASE [5]: 11 u/L
- POTASSIUM [5]: 6.3 MEQ/L
- TOTAL BILIRUBIN [5]: 0.23 mg/dL
- TOTAL PROTEIN [5]: 6.6 G/DL
- URIC ACID [5]: 1.1 mg/dL
- ABSOLUTE BASOPHIL [6]: 0 CELLS/uL
- ABSOLUTE EOSINOPHIL [6]: 0 CELLS/uL
- ABSOLUTE LYMPHOCYTE [6]: 7567 CELLS/uL
- ABSOLUTE MONOCYTE [6]: 38.67 CELLS/uL
- ABSOLUTE SEGMENTED NEUTROPHIL [6]: 427.67 CELLS/uL
- BASOPHIL [6]: 0%
- EOSINOPHIL [6]: 0%
- ERYTHROCYTE COUNT [6]: 5.69 x10E6/uL
- HEMATOCRIT [6]: 34.77%
- HEMOGLOBIN [6]: 13.5 G/DL
- LEUKOCYTE COUNT [6]: 8.03 x10E3/uL
- LYMPHOCYTE [6]: 94.33%
- MEAN CORPUSCULAR HEMOGLOBIN CONCENTRATION [6]: 38.83 G/DL
- MONOCYTE [6]: 0.33%
- NEUTROPHIL [6]: 5.33%
- NUCLEATED RED BLOOD CELLS [6]: 0.33 /100WBC
- PLATELET COUNT [6]: 1070.33 x10E3/uL
- ALANINE AMINOTRANSFERASE [7]: 54 u/L
- ALKALINE PHOSPHATASE [7]: 340 u/L
- ASPARTATE AMINOTRANSFERASE [7]: 84.33 u/L
- BLOOD UREA NITROGEN [7]: 18 mg/dL
- CARBON DIOXIDE [7]: 28 mmol/L
- CHOLESTEROL [7]: 71.67 mg/dL
- CREATINE PHOSPHOKINASE [7]: 378.67 u/L
- CREATININE [7]: 0.28 mg/dL
- GLUCOSE [7]: 151.67 mg/dL
- LACTATE DEHYDROGENASE [7]: 133 u/L
- LIPASE [7]: 11.67 u/L
- PHOSPHORUS [7]: 10.93 mg/dL
- POTASSIUM [7]: 4.99 MEQ/L
- TOTAL BILIRUBIN [7]: 0.17 mg/dL
- TOTAL PROTEIN [7]: 6.07 G/DL
- URIC ACID [7]: 0.83 mg/dL

From ChEMBL document CHEMBL3885881, “DrugMatrix”
